According to patent US7868037B2 (PTC Therapeutics, Inc., priority 2004, dated 2011):

Assays:
[1] = system: cap-dependent translation (pLuc); experiment: Western blot of Fluc reporter protein in pLuc cells; format: cell-based, human; conditions: 20 hours, data not shown
[2] = system: HCV replicon; experiment: microbe, parasite or virus in culture; format: cell-based, hepatitis C virus; conditions: Hepatitis C virus, read-out: Replicon IC50 μM

Row | Compound | cap-dependent protein production (pLuc) in Western blot [1] | melting point [°C] | IC50 [2] [µM]
1 | COc1ccc(C[C@H](N)C(=O)N[C@H]2[C@@H](O)[C@H](n3cnc4c(N(C)C)ncnc43)O[C@@H]2CO)cc1 [puromycin] | inhibited | – | –
2 | CCOc1ccc(-c2c(C#N)c3ccc(NS(=O)(=O)CC)cc3n2CC)cc1 [Compound 835, Ethanesulfonic acid [3-cyano-2-(4-ethoxyphenyl)-1-ethyl-1H-indol-6-yl]-amide] | – | 178 to 179 | 0.5 to 2
3 | CCOc1ccc(-c2c(C#N)c3ccc(Br)cc3n2CC)cc1 [Compound 831, 6-Bromo-2-(4-ethoxyphenyl)-1-ethyl-1H-indole-3-carbonitrile] | – | 140 to 141 | > 2
4 | N#Cc1c(-n2cccc2)[nH]c2cc([N+](=O)[O-])ccc12 [Compound 7, 6-nitro-2-pyrrol-1-yl-1H-indole-3-carbonitrile] | – | 304 to 305 | 0.5 to 2
5 | CCn1c(-c2ccc(OCCNS(C)(=O)=O)cc2)c(C#N)c2ccc(OC)cc21 [Compound 268, N-{2-[4-(3-cyano-1-ethyl-6-methoxy-1H-indol-2-yl)-phenoxy]-ethyl}methanesulfonamide] | – | 137 to 143 | 0.5 to 2
6 | CCOc1ccc2c(C#N)c(-c3ccc(N4CC(=O)NC4=O)cc3)n(CC)c2c1 [Compound 776, 2-[4-(2,4-dioxo-imidazolidin-1-yl)phenyl]-6-ethoxy-1-ethyl-1H-indole-3-carbonitrile] | – | 257 to 258 | < 0.5
7 | CCOc1ccc2c(C#N)cn(CC)c2c1 [Compound 9, 6-ethoxy-1-ethyl-1H-indole-3-carbonitrile] | – | 61 to 63 | > 2
8 | CCn1cc(C#N)c2ccc(OC)cc21 [Compound 5, 1-ethyl-6-methoxy-1H-indole-3-carbonitrile] | – | 64 to 66 | > 2
9 | CCn1cc(-c2cnco2)c2ccc(C(=O)OC)cc21 [Compound 72, methyl 1-ethyl-3-oxazol-5-yl-1H-indole-6-carboxylate] | – | 144 to 149 | > 2
10 | CCn1c(-c2ccc(NS(C)(=O)=O)cc2)c(C#N)c2ccc(O)cc21 [Compound 189, N-[4-(3-cyano-1-ethyl-6-hydroxy-1H-indol-2-yl)-phenyl]-methanesulfonamide] | – | 252 to 253 | > 2
